The results in this text go back to US6872729B2, “Pyrimidinylbenzimidazole and triazinylbenzimidazole derivatives and agricultural/horticultural fungicides” (Kumiai Chemical Industry Co., Ltd., priority 1998, dated 2005).

The assay relates to Erysiphe graminis. Description: Test for preventive effect on wheat powdery mildew. It counts as in vivo. The settings on record: wheat (Norin-61-go) seedlings, 500 ppm active ingredient, preventive treatment; diseased area of first leaves 10 days after inoculation with Erysiphe graminis. As for the experimental part:
Test for Preventive Effect on Wheat Powdery Mildew 9 Wheat seeds (variety: Norin-61-go) were sown in each 9 cm×9 cm polyvinyl chloride pot, grown in a greenhouse for 8 days, then treated with 10 ml per pot of aqueous solutions of wettable powders prepared in accordance with Formulation Example 2, at a concentration of 500 ppm in terms of the active ingredients and dried in the air. Then, the seedlings were inoculated with Erysiphe graminis spores by sprinkle over the plant and placed in a greenhouse of from 20 to 25° C. 10 days after the inoculation, the total diseases area of the first leaves in each pot was observed and evaluated on the basis of the standards shown in Table 67. [table]
Consider `CCOc1nc(OCC)nc(-n2c(C)nc3cc(Br)ccc32)n1` [Compound I-515], for which the Biological effectiveness result is “A (No diseased area)”.

With `CCOc1cc(OCC)nc(-n2cnc3cc(C(F)(F)F)ccc32)n1` [Compound I-483], the Biological effectiveness result is “A (No diseased area)”.

Take `C=CCOc1cc(C)nc(-n2c(C)nc3ccccc32)n1` [Compound I-885]: the Biological effectiveness entry is “B (Diseased area of less than 25%)”. As to `COc1cc(OC)nc(-n2c(C)nc3ccc(F)cc32)n1` [Compound I-200], the Biological effectiveness result is “A (No diseased area)”.

For `COc1nc(OC)nc(-n2c(C3CC3)nc3cc(Cl)ccc32)n1` [Compound I-360], the Biological effectiveness result was “B (Diseased area of less than 25%)”.

With `COc1nc(OC)nc(-n2c(C(F)(F)F)nc3cc(Br)ccc32)n1` [Compound I-311], the Biological effectiveness entry is listed as “A (No diseased area)”. Consider `CCc1cc(C)nc(-n2c(C)nc3cc(C)ccc32)n1` [Compound I-1087], for which the Biological effectiveness entry is on record as “A (No diseased area)”.

In the case of `CCOc1cc(OCC)nc(-n2c(C)nc3cc(C)ccc32)n1` [Compound I-501], the Biological effectiveness result is on record as “A (No diseased area)”. On to `CCc1nc2cc(F)ccc2n1-c1nc(OC)cc(OC)n1` [Compound I-332], for which the Biological effectiveness entry is “B (Diseased area of less than 25%)”. For the compound `COc1cc(OC)nc(-n2c(C)nc3c(C)cccc32)n1` [Compound I-181], the Biological effectiveness result is “B (Diseased area of less than 25%)”. For the compound `CCc1cc(C)nc(-n2c(C)nc3cc(Cl)ccc32)n1` [Compound I-1088], the Biological effectiveness result is reported as “A (No diseased area)”.

`COc1cc(OC)nc(-n2c(SC)nc3cc(Cl)ccc32)n1` [Compound I-388]: the Biological effectiveness result is listed as “A (No diseased area)”. In the case of `COc1ccc2c(c1)nc(C)n2-c1nc(OC)nc(OC)n1` [Compound I-226] it was “A (No diseased area)”; in that of `COc1nc(-c2ccccc2)nc(-n2c(C(F)(F)F)nc3ccc(C)cc32)n1` [Compound I-1059], “A (No diseased area)”; in that of `CCOc1nc(OCC)nc(-n2c(C)nc3cc(Cl)ccc32)n1` [Compound I-514], “A (No diseased area)”. With `CCc1nc2ccccc2n1-c1nc(OC)cc(OC)n1` [Compound I-7], the Biological effectiveness result was “A (No diseased area)”.

Turning to `CSc1nc(C)nc(-n2c(C)nc3cc(C)ccc32)n1` [Compound I-915], the Biological effectiveness result is listed as “A (No diseased area)”. On to `COc1cc(OC)nc(-n2c(C)nc3ccc(C(=O)c4ccccc4)cc32)n1` [Compound I-208], for which the Biological effectiveness result is on record as “B (Diseased area of less than 25%)”. The same measure for `CCc1cc(CC)nc(-n2c(C)nc3ccc(Cl)cc32)n1` [Compound I-1098]: “A (No diseased area)”; for `CCOc1cc(OCC)nc(-n2c(C)nc3ccccc32)n1` [Compound I-461]: “A (No diseased area)”.

Regarding `COc1nc(OC)nc(-n2c(C(F)(F)F)nc3cc(C(C)C)ccc32)n1` [Compound I-315], the Biological effectiveness result is “B (Diseased area of less than 25%)”. Take `COc1ccnc(-n2cnc3cc(Cl)ccc32)n1` [Compound I-669]: the Biological effectiveness entry is on record as “B (Diseased area of less than 25%)”. With `CCCOc1cc(C)nc(-n2cnc3cc(C)ccc32)n1` [Compound I-809], the Biological effectiveness entry is on record as “B (Diseased area of less than 25%)”.

For the compound `COc1nc(OC)nc(-n2c(C)nc3cc(C(C)=O)ccc32)n1` [Compound I-234], the Biological effectiveness result was “A (No diseased area)”. In the case of `C#CCOc1cc(C)nc(-n2cnc3ccccc32)n1` [Compound I-894] it was “B (Diseased area of less than 25%)”; in that of `COc1nc(OC)nc(-n2c(C(F)(F)F)nc3cc(Cl)ccc32)n1` [Compound I-310], “A (No diseased area)”; in that of `CCOc1cc(OCC)nc(-n2c(C)nc3cc(C(F)(F)F)ccc32)n1` [Compound I-502], “A (No diseased area)”. As for `COc1cc(OC)nc(-n2c(Cl)nc3cc(Cl)ccc32)n1` [Compound I-256], the Biological effectiveness result was “A (No diseased area)”. With `CCCOc1nc(C)nc(-n2c(C)nc3cc(C)ccc32)n1` [Compound I-831], the Biological effectiveness result is “B (Diseased area of less than 25%)”. On to `CCOc1cc(OCC)nc(-n2cnc3ccc(Cl)cc32)n1` [Compound I-486], for which the Biological effectiveness entry is reported as “A (No diseased area)”. Turning to `COc1cc(OC)nc(-n2c(C)nc3ccccc32)n1` [Compound I-6], the Biological effectiveness entry was “B (Diseased area of less than 25%)”. For `CSc1nc(C)nc(-n2c(C(F)(F)F)nc3cc(C)ccc32)n1` [Compound I-1048], the Biological effectiveness entry is “A (No diseased area)”.

As for `COc1cc(OC)nc(-n2c(C(F)(F)F)nc3ccc(C)cc32)n1` [Compound I-307], the Biological effectiveness result is “A (No diseased area)”. `COc1nc(-c2ccccc2)nc(-n2c(C)nc3cc(C)ccc32)n1` [Compound I-1058]: the Biological effectiveness entry is “A (No diseased area)”. For the compound `CCOc1ccnc(-n2c(C)nc3cc(Cl)ccc32)n1` [Compound I-694], the Biological effectiveness entry was “B (Diseased area of less than 25%)”. As to `COc1nc(OC)nc(-n2c(C)nc3cc(F)ccc32)n1` [Compound I-214], the Biological effectiveness entry is listed as “A (No diseased area)”. Consider `CCOc1cc(C)nc(-n2c(C)nc3ccccc32)n1` [Compound I-769], for which the Biological effectiveness result is recorded as “A (No diseased area)”. With `COc1cc(OC)nc(-n2c(C)nc3cc(F)ccc32)n1` [Compound I-183], the Biological effectiveness entry is on record as “B (Diseased area of less than 25%)”.

As for `COc1ccc2c(c1)ncn2-c1nc(OC)nc(OC)n1` [Compound I-141], the Biological effectiveness entry is “A (No diseased area)”. In the case of `COc1ccc2nc(C)n(-c3nc(OC)cc(OC)n3)c2c1` [Compound I-204] it was “A (No diseased area)”; in that of `Cc1cc(C#N)nc(-n2c(C)nc3ccccc32)n1` [Compound I-1147], “B (Diseased area of less than 25%)”.

In the case of `COc1nc(C)nc(-n2c(Cl)nc3cc(C)ccc32)n1` [Compound I-758], the Biological effectiveness result was “A (No diseased area)”. For the compound `COc1nc(OC)nc(-n2c(C)nc3cc(Br)ccc32)n1` [Compound I-216], the Biological effectiveness entry was “A (No diseased area)”. For `Cc1cc(C2CC2)nc(-n2c(C)nc3cc(Cl)ccc32)n1` [Compound I-1104], the Biological effectiveness result is “B (Diseased area of less than 25%)”.

Regarding `COc1ccnc(-n2c(C)nc3ccc(Cl)cc32)n1` [Compound I-675], the Biological effectiveness result is reported as “B (Diseased area of less than 25%)”. Consider `COc1nc(OC)nc(-n2c(-c3ccccc3)nc3cc(Cl)ccc32)n1` [Compound I-378], for which the Biological effectiveness entry is recorded as “A (No diseased area)”.

Regarding `Cc1nc2cc(Cl)ccc2n1-c1nc(OC(C)C)nc(OC(C)C)n1` [Compound I-592], the Biological effectiveness entry is reported as “A (No diseased area)”. In the case of `COc1cc(OC)nc(-n2c(C#N)nc3cc(Cl)ccc32)n1` [Compound I-380], the Biological effectiveness result was “A (No diseased area)”. As to `CCOc1ccnc(-n2cnc3cc(C)ccc32)n1` [Compound I-693], the Biological effectiveness entry is given as “A (No diseased area)”. In the case of `COc1cc(OC)nc(-n2c(C)nc3ccc(C)cc32)n1` [Compound I-202] it was “B (Diseased area of less than 25%)”. In the case of `CCOc1cc(OCC)nc(-n2c(C)nc3ccc(OC)cc32)n1` [Compound I-511], the Biological effectiveness entry is “A (No diseased area)”.

With `CCCc1ccc2c(c1)nc(C)n2-c1nc(OC)nc(OC)n1` [Compound I-220], the Biological effectiveness result is recorded as “B (Diseased area of less than 25%)”.

Turning to `COc1cc(OC)nc(-n2c(SC)nc3cc(C)ccc32)n1` [Compound I-389], the Biological effectiveness entry was “B (Diseased area of less than 25%)”. On to `CCOc1cc(C)nc(-n2c(C)nc3cc(C)ccc32)n1` [Compound I-775], for which the Biological effectiveness result is reported as “A (No diseased area)”. Regarding `COc1nc(OC)nc(-n2cnc3cc(Cl)ccc32)n1` [Compound I-130], the Biological effectiveness entry is given as “A (No diseased area)”. With `CCCOc1nc(OCCC)nc(-n2c(C)nc3cc(Cl)ccc32)n1` [Compound I-580], the Biological effectiveness result is reported as “A (No diseased area)”.

Turning to `COc1cc(OC)nc(-n2cnc3cc(OC(F)(F)F)ccc32)n1` [Compound I-91], the Biological effectiveness result is recorded as “B (Diseased area of less than 25%)”. The same measure for `CCCc1cc(OC)nc(-n2c(C)nc3ccccc32)n1` [Compound I-959]: “A (No diseased area)”; for `COc1nc(OC)nc(-n2cnc3cc(Cl)c(Cl)cc32)n1` [Compound I-175]: “A (No diseased area)”. `CCOc1ccnc(-n2c(C(F)(F)F)nc3cc(C)ccc32)n1` [Compound I-705]: the Biological effectiveness entry is given as “A (No diseased area)”. For `COc1nc(OC)nc(-n2c(C)nc3cc(C)c(C)cc32)n1` [Compound I-251], the Biological effectiveness result is “A (No diseased area)”. On to `C#CCOc1cc(C)nc(-n2c(N)nc3cc(C)ccc32)n1` [Compound I-904], for which the Biological effectiveness entry is listed as “B (Diseased area of less than 25%)”. Consider `COc1cc(OC)nc(-n2c(C(F)(F)F)nc3cc(Cl)ccc32)n1` [Compound I-296], for which the Biological effectiveness result is reported as “A (No diseased area)”.

With `COc1nc(OC)nc(-n2c(C)nc3cc(C#N)ccc32)n1` [Compound I-239], the Biological effectiveness entry is “A (No diseased area)”.

As for `COc1cc(OC)nc(-n2cnc3cc(C)ccc32)n1` [Compound I-85], the Biological effectiveness result is given as “A (No diseased area)”. `CCOc1cc(OCC)nc(-n2c(C)nc3ccc(F)cc32)n1` [Compound I-507]: the Biological effectiveness result is on record as “A (No diseased area)”.
